{"source": "patent US20210309619A1", "about": "“ISOXAZOLIN-5-ONE DERIVATIVES AND HERBICIDES CONTAINING THE SAME AS ACTIVE INGREDIENTS” (HOKKO CHEMICAL INDUSTRY CO., LTD., priority 2018, published 2021)", "assay_type_in_all_cases": "in vivo", "key": {"[1]": {"test_system": "Amaranthus viridis", "test": "Herbicidal effect test by treatment of dry field farming soil (Test Example 3)", "details": "120 g/10 a, sprayed one day after seeding, 14 days after treatment", "source_text": "(§1) Herbicidal Rate (%)={1−(Average Dry Weight (g) of Plant of Treated Area)/(Average Dry Weight (g) of Plant of Untreated Area)}×100 [Math. 1] Pots with a size of 36 cm^2 were filled with a dry field farming soil (alluvium). The soil of the top layer of 1 cm and seeds of weeds, namely southern crabgrass, Echinochloa crus-galli, Chenopodium album and Amaranthus viridis, 20 seeds each, were evenly mixed, and the top layer was gently pressed. Emulsions prepared using the compounds in Table 5 below according to Formulation Example 5 were diluted with water one day after seeding, and the water-diluted agent solutions were sprayed to the soil surfaces at a ratio of 100 liters per 10 ares. A converted amount of the applied active ingredient corresponded to 120 g per 10 ares. The herbicidal effects were evaluated by the same standard as that in Test Example 1, 14 days after the treatment with the agents. In this regard, the compound numbers in Table 5 are the same as those in Table 1 and Table 2 above."}, "[2]": {"test_system": "southern crabgrass", "test": "Herbicidal effect test by treatment of dry field farming soil (Test Example 3)", "details": "120 g/10 a, sprayed one day after seeding, 14 days after treatment", "source_text": "as §1"}, "[3]": {"test_system": "Echinochloa crus-galli", "test": "Herbicidal effect test by treatment of dry field farming soil (Test Example 3)", "details": "120 g/10 a, sprayed one day after seeding, 14 days after treatment", "source_text": "as §1"}, "[4]": {"test_system": "Chenopodium album", "test": "Herbicidal effect test by treatment of dry field farming soil (Test Example 3)", "details": "120 g/10 a, sprayed one day after seeding, 14 days after treatment", "source_text": "as §1"}, "[5]": {"test_system": "Amaranthus viridis", "test": "Herbicidal effect test by treatment of stem and leaf in dry field farming (Test Example 4)", "details": "120 g/10 a, stem and leaf treatment seven days after seeding, 14 days after treatment", "source_text": "as §1, with “Table 6” for “Table 5”, “water seven days” for “water one day”"}, "[6]": {"test_system": "southern crabgrass", "test": "Herbicidal effect test by treatment of stem and leaf in dry field farming (Test Example 4)", "details": "120 g/10 a, stem and leaf treatment seven days after seeding, 14 days after treatment", "source_text": "as §1, with “Table 6” for “Table 5”, “water seven days” for “water one day”"}, "[7]": {"test_system": "Echinochloa crus-galli", "test": "Herbicidal effect test by treatment of stem and leaf in dry field farming (Test Example 4)", "details": "120 g/10 a, stem and leaf treatment seven days after seeding, 14 days after treatment", "source_text": "as §1, with “Table 6” for “Table 5”, “water seven days” for “water one day”"}, "[8]": {"test_system": "Chenopodium album", "test": "Herbicidal effect test by treatment of stem and leaf in dry field farming (Test Example 4)", "details": "120 g/10 a, stem and leaf treatment seven days after seeding, 14 days after treatment", "source_text": "as §1, with “Table 6” for “Table 5”, “water seven days” for “water one day”"}, "[9]": {"test_system": "Monochoria vaginalis", "test": "Herbicidal effect test by treatment during growing period in paddy rice cultivation (Test Example 2)", "details": "120 g/10 a, treated seven days after seeding, 14 days after treatment", "source_text": "(§2) Herbicidal Rate (%)={1−(Average Dry Weight (g) of Plant of Treated Area)/(Average Dry Weight (g) of Plant of Untreated Area)}×100 [Math. 1]\n(§3) Wagner pots with an area of 1/10000 ares were filled with a paddy soil, and a compound fertilizer (N:P:K=17:17:17) was mixed after addition of water, followed by soil puddling. Then, Echinochloa crus-galli, broad leaf weeds (Lindernia pyxidaria and Monochoria vaginalis) and Scirpus juncoides, 30 seeds each, were sown in a depth of 0 to 1 cm. Water was poured immediately after seeding, and the water depth was kept at about 3 cm. A subsequent management was conducted in a glass greenhouse. Emulsions prepared using the compounds in Table 4 below according to Formulation Example 5 were diluted with water seven days after seeding, and a certain amount of the water-diluted agent solutions were dropped. A converted amount of the applied active ingredient corresponded to 120 g per 10 ares. The test was conducted in a double system per one agent solution concentration area, and the herbicidal rates (%) were determined by the equation (Math. 1) 14 days after the treatment with the agents. In this regard, the compound numbers in Table 4 are the same as those in Table 1 and Table 2 above."}, "[10]": {"test_system": "Lindernia pyxidaria", "test": "Herbicidal effect test by treatment during growing period in paddy rice cultivation (Test Example 2)", "details": "120 g/10 a, treated seven days after seeding, 14 days after treatment", "source_text": "as §2, §3"}, "[11]": {"test_system": "Echinochloa crus-galli", "test": "Herbicidal effect test by treatment during growing period in paddy rice cultivation (Test Example 2)", "details": "120 g/10 a, treated seven days after seeding, 14 days after treatment", "source_text": "as §2, §3"}, "[12]": {"test_system": "Scirpus juncoides", "test": "Herbicidal effect test by treatment during growing period in paddy rice cultivation (Test Example 2)", "details": "120 g/10 a, treated seven days after seeding, 14 days after treatment", "source_text": "as §2, §3"}, "[13]": {"test_system": "Monochoria vaginalis", "test": "Herbicidal effect test by treatment of rice paddy soil (Test Example 1)", "details": "120 g/10 a, treated immediately after seeding, 14 days after treatment", "procedure": "(§4) Wagner pots with an area of 1/10000 ares were filled with a paddy soil, and a compound fertilizer (N:P:K=17:17:17) was mixed after water was added, followed by soil puddling. Then, Echinochloa crus-galli, broad leaf weeds (Lindernia pyxidaria and Monochoria vaginalis) and Scirpus juncoides, 30 seeds each, were sown in a depth of 0 to 1 cm. Water was poured immediately after seeding, and the water depth was kept at about 3 cm. A subsequent management was conducted in a glass greenhouse. Immediately after that, emulsions prepared using the compounds in Table 3 below according to Formulation Example 5 were diluted with water, and a certain amount of the water-diluted agent solutions were dropped. A converted amount of the applied active ingredient corresponded to 120 g per 10 ares.\n(§5) This test was conducted in a double system per one agent solution concentration area, and the herbicidal rates (%) were determined by the following equation (Math. 1) 14 days after the treatment with the agents.\nas §2"}, "[14]": {"test_system": "Lindernia pyxidaria", "test": "Herbicidal effect test by treatment of rice paddy soil (Test Example 1)", "details": "120 g/10 a, treated immediately after seeding, 14 days after treatment", "procedure": "as §4, §5, §2"}, "[15]": {"test_system": "Echinochloa crus-galli", "test": "Herbicidal effect test by treatment of rice paddy soil (Test Example 1)", "details": "120 g/10 a, treated immediately after seeding, 14 days after treatment", "procedure": "as §4, §5, §2"}, "[16]": {"test_system": "Scirpus juncoides", "test": "Herbicidal effect test by treatment of rice paddy soil (Test Example 1)", "details": "120 g/10 a, treated immediately after seeding, 14 days after treatment", "procedure": "as §4, §5, §2"}}, "data": [{"smiles": "COC1CCCCC1n1oc(=O)c(Cc2ccccc2NS(=O)(=O)C(F)(F)F)c1C", "note": "(stereo not shown) [Compound 62, 1,1,1-trifluoro-N-[2-[[(2-methoxycyclohexyl)-3-methyl-5-oxoisoxazol-4-yl]methyl]phenyl]methanesulfonamide]", "values": [{"measurement": "Herbicidal rate, Amaranthus viridis", "setting": "[1]", "value": 60, "unit": "%"}, {"measurement": "Herbicidal rate, southern crabgrass", "setting": "[2]", "value": 90, "unit": "%"}, {"measurement": "Herbicidal rate, Echinochloa crus-galli", "setting": "[3]", "value": 90, "unit": "%"}, {"measurement": "Herbicidal rate, Chenopodium album", "setting": "[4]", "value": 60, "unit": "%"}, {"measurement": "Herbicidal rate, Amaranthus viridis", "setting": "[5]", "value": 90, "unit": "%"}, {"measurement": "Herbicidal rate, southern crabgrass", "setting": "[6]", "value": 90, "unit": "%"}, {"measurement": "Herbicidal rate, Echinochloa crus-galli", "setting": "[7]", "value": 90, "unit": "%"}, {"measurement": "Herbicidal rate, Chenopodium album", "setting": "[8]", "value": 90, "unit": "%"}, {"measurement": "Herbicidal rate, Monochoria vaginalis", "setting": "[9]", "value": 90, "unit": "%"}, {"measurement": "Herbicidal rate, Lindernia pyxidaria", "setting": "[10]", "value": 80, "unit": "%"}, {"measurement": "Herbicidal rate, Echinochloa crus-galli", "setting": "[11]", "value": 100, "unit": "%"}, {"measurement": "Herbicidal rate, Scirpus juncoides", "setting": "[12]", "value": 90, "unit": "%"}, {"measurement": "Herbicidal rate, Monochoria vaginalis", "setting": "[13]", "value": 100, "unit": "%"}, {"measurement": "Herbicidal rate, Lindernia pyxidaria", "setting": "[14]", "value": 100, "unit": "%"}, {"measurement": "Herbicidal rate, Echinochloa crus-galli", "setting": "[15]", "value": 100, "unit": "%"}, {"measurement": "Herbicidal rate, Scirpus juncoides", "setting": "[16]", "value": 100, "unit": "%"}]}]}
